Source: the NIST ThermoML archive (doi:10.1021/acs.jced.6b00391)
“And” between values parts separate entries of the source, which are not always exact repeats. Equal values may be shown once. Numbers after ± are expanded uncertainties.

Columns and labels:
[1] = xn = mol fraction of the nth substance listed; conditions: Liquid, Capillary tube (Ostwald / Ubbelohde) method
[2] = Liquid, Capillary tube (Ostwald / Ubbelohde) method

CCCCCCCC [octane] + CCCCCCC
viscosity, [1]
Conditions | 100 kPa | 5000 kPa
303.5 K, x2 = 0.255 | 0.4422 ± 0.011 mPa·s and 0.4417 ± 0.0058 mPa·s | –
303.5 K, x2 = 0.51 | 0.4149 ± 0.011 mPa·s and 0.413 ± 0.0057 mPa·s | 0.4362 ± 0.011 mPa·s and 0.4357 ± 0.0057 mPa·s
303.9 K, x2 = 0.255 | – | 0.4663 ± 0.011 mPa·s and 0.4658 ± 0.0058 mPa·s
305.7 K, x2 = 0.759 | 0.3798 ± 0.011 mPa·s and 0.3784 ± 0.0055 mPa·s | 0.4032 ± 0.011 mPa·s and 0.4029 ± 0.0055 mPa·s
333.5 K, x2 = 0.51 | 0.3011 ± 0.01 mPa·s and 0.3026 ± 0.0053 mPa·s | –
333.8 K, x2 = 0.255 | 0.3234 ± 0.011 mPa·s and 0.3228 ± 0.0054 mPa·s | –
335.6 K, x2 = 0.759 | 0.2815 ± 0.01 mPa·s and 0.2806 ± 0.0052 mPa·s | –
363.4 K, x2 = 0.255 | 0.2447 ± 0.01 mPa·s and 0.2464 ± 0.0051 mPa·s | –
363.4 K, x2 = 0.51 | 0.2329 ± 0.01 mPa·s and 0.2323 ± 0.005 mPa·s | –
364.6 K, x2 = 0.759 | 0.2164 ± 0.01 mPa·s and 0.2169 ± 0.005 mPa·s | –
373.2 K, x2 = 0.255 | – | 0.2415 ± 0.01 mPa·s and 0.2402 ± 0.0051 mPa·s
373.2 K, x2 = 0.759 | – | 0.2181 ± 0.01 mPa·s and 0.2175 ± 0.005 mPa·s
373.6 K, x2 = 0.51 | – | 0.2277 ± 0.01 mPa·s and 0.2275 ± 0.0051 mPa·s
413.7 K, x2 = 0.51 | – | 0.1702 ± 0.01 mPa·s and 0.1698 ± 0.0048 mPa·s
413.9 K, x2 = 0.255 | – | 0.1792 ± 0.01 mPa·s and 0.1801 ± 0.0048 mPa·s
424.4 K, x2 = 0.759 | – | 0.1497 ± 0.01 mPa·s and 0.1493 ± 0.0048 mPa·s
472.5 K, x2 = 0.759 | – | 0.1071 ± 0.01 mPa·s and 0.1075 ± 0.0047 mPa·s
473.4 K, x2 = 0.51 | – | 0.1124 ± 0.01 mPa·s and 0.1125 ± 0.0047 mPa·s
473.5 K, x2 = 0.255 | – | 0.1186 ± 0.01 mPa·s and 0.1184 ± 0.0047 mPa·s

CCCCCCCCCCCC [dodecane]
[2], 5000 kPa
Conditions | viscosity
303.2 K | 1.334 ± 0.017 mPa·s and 1.314 ± 0.014 mPa·s
313.2 K | 1.122 ± 0.016 mPa·s and 1.116 ± 0.013 mPa·s
323 K | 0.97 ± 0.014 mPa·s and 0.9626 ± 0.011 mPa·s
333.1 K | 0.8519 ± 0.013 mPa·s and 0.8434 ± 0.0096 mPa·s
343.3 K | 0.7442 ± 0.013 mPa·s and 0.7445 ± 0.0087 mPa·s
353.3 K | 0.6736 ± 0.012 mPa·s and 0.6661 ± 0.0081 mPa·s
363.2 K | 0.6075 ± 0.012 mPa·s and 0.5969 ± 0.0076 mPa·s
373.3 K | 0.5467 ± 0.012 mPa·s and 0.5397 ± 0.0073 mPa·s
383.2 K | 0.4902 ± 0.011 mPa·s and 0.4913 ± 0.007 mPa·s
393.2 K | 0.4472 ± 0.011 mPa·s and 0.448 ± 0.0068 mPa·s
403.2 K | 0.4112 ± 0.011 mPa·s and 0.4118 ± 0.0066 mPa·s
413.2 K | 0.3785 ± 0.011 mPa·s and 0.3799 ± 0.0064 mPa·s
423.2 K | 0.3508 ± 0.011 mPa·s and 0.3516 ± 0.0063 mPa·s
433.2 K | 0.3277 ± 0.011 mPa·s and 0.3259 ± 0.0062 mPa·s
443.4 K | 0.2974 ± 0.011 mPa·s and 0.3041 ± 0.0062 mPa·s
453.1 K | 0.2822 ± 0.011 mPa·s and 0.2827 ± 0.0061 mPa·s
463.2 K | 0.2604 ± 0.011 mPa·s and 0.2619 ± 0.0061 mPa·s
473.2 K | 0.244 ± 0.011 mPa·s and 0.244 ± 0.006 mPa·s
483.1 K | 0.225 ± 0.011 mPa·s and 0.2259 ± 0.006 mPa·s
493.2 K | 0.2076 ± 0.011 mPa·s and 0.2072 ± 0.0059 mPa·s
503.2 K | 0.1964 ± 0.011 mPa·s and 0.1969 ± 0.0059 mPa·s
513.1 K | 0.1846 ± 0.011 mPa·s and 0.1835 ± 0.0059 mPa·s
523.2 K | 0.1722 ± 0.011 mPa·s and 0.1698 ± 0.0059 mPa·s
533.1 K | 0.1608 ± 0.011 mPa·s and 0.1591 ± 0.0058 mPa·s
543.2 K | 0.1489 ± 0.011 mPa·s and 0.1487 ± 0.0058 mPa·s
553.2 K | 0.1375 ± 0.011 mPa·s and 0.1391 ± 0.0058 mPa·s
563.2 K | 0.1297 ± 0.011 mPa·s and 0.1305 ± 0.0058 mPa·s
573.2 K | 0.1201 ± 0.011 mPa·s and 0.1221 ± 0.0058 mPa·s
583.3 K | 0.1126 ± 0.011 mPa·s and 0.1141 ± 0.0058 mPa·s
593.2 K | 0.1031 ± 0.011 mPa·s and 0.1064 ± 0.0057 mPa·s
603.2 K | 0.0974 ± 0.011 mPa·s and 0.0987 ± 0.0057 mPa·s
613.2 K | 0.0913 ± 0.011 mPa·s and 0.0915 ± 0.0057 mPa·s
623.1 K | 0.0839 ± 0.011 mPa·s and 0.0849 ± 0.0057 mPa·s
633.2 K | 0.0767 ± 0.011 mPa·s and 0.0786 ± 0.0057 mPa·s
643.1 K | 0.0694 ± 0.011 mPa·s and 0.0714 ± 0.0057 mPa·s
653.2 K | 0.0657 ± 0.011 mPa·s and 0.065 ± 0.0057 mPa·s
663.2 K | 0.0605 ± 0.011 mPa·s and 0.0605 ± 0.0057 mPa·s
673.2 K | 0.0551 ± 0.011 mPa·s and 0.0548 ± 0.0057 mPa·s

CCCCCCCC [octane]
[2], 3100 kPa
Conditions | viscosity
303.2 K | 0.4913 ± 0.0058 mPa·s and 0.4948 ± 0.0048 mPa·s
313.3 K | 0.4426 ± 0.0057 mPa·s and 0.4431 ± 0.0046 mPa·s
323.2 K | 0.3961 ± 0.0053 mPa·s and 0.3979 ± 0.0042 mPa·s
333.2 K | 0.3634 ± 0.0051 mPa·s and 0.3617 ± 0.0038 mPa·s
343.2 K | 0.3311 ± 0.005 mPa·s and 0.3308 ± 0.0036 mPa·s
353.1 K | 0.3013 ± 0.0048 mPa·s and 0.3032 ± 0.0035 mPa·s
363.2 K | 0.2765 ± 0.0047 mPa·s and 0.2775 ± 0.0033 mPa·s
373.3 K | 0.254 ± 0.0046 mPa·s and 0.258 ± 0.0032 mPa·s
383 K | 0.234 ± 0.0045 mPa·s and 0.2379 ± 0.0031 mPa·s
393.1 K | 0.2205 ± 0.0045 mPa·s and 0.2202 ± 0.003 mPa·s
403.2 K | 0.2019 ± 0.0044 mPa·s and 0.204 ± 0.0029 mPa·s
413.2 K | 0.1905 ± 0.0044 mPa·s and 0.1902 ± 0.0028 mPa·s
423.2 K | 0.1761 ± 0.0044 mPa·s and 0.1775 ± 0.0028 mPa·s
433.1 K | 0.1643 ± 0.0043 mPa·s and 0.1642 ± 0.0027 mPa·s
443.2 K | 0.1526 ± 0.0043 mPa·s and 0.1514 ± 0.0026 mPa·s
453.1 K | 0.1417 ± 0.0043 mPa·s and 0.1428 ± 0.0026 mPa·s
463.2 K | 0.1321 ± 0.0043 mPa·s and 0.1318 ± 0.0026 mPa·s
473.1 K | 0.1228 ± 0.0042 mPa·s and 0.1241 ± 0.0025 mPa·s
483.1 K | 0.1138 ± 0.0042 mPa·s and 0.1152 ± 0.0025 mPa·s
493.1 K | 0.1068 ± 0.0042 mPa·s and 0.1072 ± 0.0025 mPa·s
503 K | 0.0993 ± 0.0042 mPa·s and 0.0983 ± 0.0025 mPa·s
513.2 K | 0.0901 ± 0.0042 mPa·s and 0.0904 ± 0.0024 mPa·s
523.3 K | 0.0825 ± 0.0042 mPa·s and 0.0826 ± 0.0024 mPa·s
533.4 K | 0.0753 ± 0.0041 mPa·s and 0.0751 ± 0.0024 mPa·s
543.4 K | 0.0678 ± 0.0041 mPa·s and 0.0678 ± 0.0024 mPa·s
553.4 K | 0.0607 ± 0.0041 mPa·s and 0.0609 ± 0.0024 mPa·s
563.3 K | 0.0532 ± 0.0041 mPa·s and 0.0534 ± 0.0024 mPa·s
573.3 K | 0.0444 ± 0.0041 mPa·s and 0.0446 ± 0.0024 mPa·s
583.1 K | 0.0325 ± 0.0041 mPa·s and 0.0323 ± 0.0024 mPa·s
